Entries after “also recorded” stand apart in the source; their conditions may differ. Values belong to the molecule of their own block, whether it stands above or below them.
Key:
UMP-CMP kinase [1] = target: T1, UMP-CMP kinase (Homo sapiens, UniProt P30085); experiment: Enzymatic activity assay (NMP phosphorylation, TLC of radiolabelled products); format: biochemical; settings: for phosphorylation of the NMP as substrate (phosphate acceptor), in words: lysates of transfected cells vs vector-transfected cells, FIG. 5A; for ability of the NTP to act as phosphate donor (CDP formed), in words: NTP varied
T1 construct: This cDNA codes for a predicted 196 amino-acid protein; expressed in transfected cells; host or cells: HEK 293 or COS-7 cells transiently transfected with pRc/CMV carrying the UMP-CMP kinase cDNA; crude lysate used
T1 sequence (P30085 1-196): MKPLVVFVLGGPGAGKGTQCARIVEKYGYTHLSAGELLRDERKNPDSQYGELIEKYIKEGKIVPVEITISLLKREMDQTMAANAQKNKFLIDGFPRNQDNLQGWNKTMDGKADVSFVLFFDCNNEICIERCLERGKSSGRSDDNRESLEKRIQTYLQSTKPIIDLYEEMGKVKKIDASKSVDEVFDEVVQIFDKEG
Procedure: Tests were conducted on the enzyme produced by the cDNA.
Since many NMP kinases phosphorylate multiple types of NMPs with varying relative kinetics, a variety of NMPs were tested as substrates.
The most preferred phosphate donor of the kinase was next investigated. […] The amount of CDP formed indicates the ability of each NTP to act as a phosphate donor.
Cell lysates (25 μg total protein) prepared as described for Western blot were added to the following reaction mixture: 83 mM tris-HCl (pH 8.0), 3.3 mM MgCl2, 0.17 M KCl, 6.7 mM NTP, 6.7 mM NMP and 0.1 μCi of the indicated [^3H]-NU (60.4 mCi/mmol). The reaction was carried out at 37° C. for 6 min and terminated with an equal volume of 2 M formic acid. Unlabeled NDP was added (6.7 mM final concentration) and the reactions were dried under a steam of nitrogen. The products were resuspended in distilled H2O and analyzed by thin layer chromatography.
Chromatography was performed by ascending development (dry start) in closed plexiglass chambers at room temperature using 0.25 M KH2PO4 (pH 3.4) as described previously. […] The products were visualized under UV light and identified by co-migration with authentic nucleotides. Spots corresponding to different nucleotides were scraped from the plate and radioactive reaction products were quantified with a multi-purpose liquid scintillation counter.

UMP-CMP kinase [2] = target: T1, UMP-CMP kinase; settings: Mol. Pharmacol. 56:562-569 (1999), ATP as donor, 30 min; cited from earlier work
HL-60 cells = experiment: RT-PCR of UMP-CMP kinase expression and phenotype in differentiating HL-60 cells; format: cell-based, human; settings: HL-60 cells treated with differentiating agent
Source text: The possibility that UMP-CMP kinase was developmentally regulated as monocytes proceed toward the macrophage phenotype was also investigated. To assess this, human monocytes were isolated and cultered for 10 days as they differentiated into macrophages. RNA was isolated on the day of cell plating and then throughout the culture period. […] These cells are monocytic, but differentiate into macrophage-like cells in the presence of phorbol-12-myristate-13-acetate (PMA) (Murao et al., 1983; Rovera et al., 1979), or into neutrophils in the presence of DMSO (Collins et al., 1975). […] These changes included adhesion and altered cell shape. No change in UMP-CMP kinase expression was detected, however, when assayed by RT-PCR. […] Similarly, no change was detected after DMSO treatment.
Because the cDNA had been cloned from a macrophage library, it was also considered possible that UMP-CMP kinase expression might be developmentally regulated as monocytes proceed toward the macrophage phenotype. To evaluate this possibility, Human monocytes were isolated and cultured for 10 days as they differentiated into macrophages. […] In order to confirm this conclusion, HL-60 cells were employed. […] Similarly, no change in this message was detected after DMSO treatment (data not shown).

[3] = varying Mg^2+ concentrations, FIG. 4

SMILES: C[S+](C)[O-] [DMSO]
- change in UMP-CMP kinase expression by RT-PCR (HL-60 cells): no change

SMILES: CCCCCCCCCCCCCC(=O)O[C@@H]1[C@@H](C)[C@@]2(O)[C@@H](C=C(CO)C[C@]3(O)C(=O)C(C)=C[C@@H]23)[C@@H]2C(C)(C)[C@]12OC(C)=O [PMA, phorbol-12-myristate-13-acetate]
- change in UMP-CMP kinase expression by RT-PCR (HL-60 cells): No change
- phenotypic change of HL-60 cells (HL-60 cells): altered the HL-60 cell phenotype from a suspension cell to an adherent cell; also recorded: induced phenotypic changes

SMILES: O=c1ccn([C@@H]2O[C@H](COP(=O)(O)O)[C@@H](O)[C@H]2O)c(=O)[nH]1 [UMP]
- phosphorylation by the kinase as reported by Van Rompay et al. (UMP-CMP kinase [2]): efficiently phosphorylated
- phosphorylation of the NMP as substrate (phosphate acceptor), in words (UMP-CMP kinase [1]): prefers

SMILES: O=c1ccn([C@@H]2O[C@H](COP(=O)(O)OP(=O)(O)OP(=O)(O)O)[C@@H](O)[C@H]2O)c(=O)[nH]1 [UTP]
- ability of the NTP to act as phosphate donor (CDP formed), in words (UMP-CMP kinase [1]; CMP as substrate, FIG. 5B): preferred as phosphate donors over CTP and GTP

SMILES: Nc1ccn([C@H]2C[C@H](O)[C@@H](COP(=O)(O)O)O2)c(=O)n1 [dCMP]
- phosphorylation by the kinase as reported by Van Rompay et al. (UMP-CMP kinase [2]): efficiently phosphorylated

Continued, in another order:

- phosphorylation of the NMP as substrate (phosphate acceptor), in words (UMP-CMP kinase [1]): only slightly
SMILES: Nc1ncnc2c1ncn2[C@@H]1O[C@H](COP(=O)(O)O)[C@@H](O)[C@H]1O [AMP]

- phosphorylation of the NMP as substrate (phosphate acceptor), in words (UMP-CMP kinase [1]): Modest
SMILES: Nc1ncnc2c1ncn2[C@@H]1O[C@H](COP(=O)(O)OP(=O)(O)OP(=O)(O)O)[C@@H](O)[C@H]1O [ATP]
- ability of the NTP to act as phosphate donor (CDP formed), in words (UMP-CMP kinase [1]; CMP as substrate, FIG. 5B): preferred as phosphate donors over CTP and GTP

- reaction efficiency in the presence of CMP relative to UMP (UMP-CMP kinase [1]): three-fold greater reaction efficiency
- phosphorylation of the NMP as substrate (phosphate acceptor), in words (UMP-CMP kinase [1]): prefers
SMILES: Nc1ccn([C@@H]2O[C@H](COP(=O)(O)O)[C@@H](O)[C@H]2O)c(=O)n1 [CMP, Cytidine Monophosphate]
- phosphorylation by the kinase as reported by Van Rompay et al. (UMP-CMP kinase [2]): efficiently phosphorylated

- reaction efficiency as phosphate donor relative to ATP or UTP (UMP-CMP kinase [1]; CMP as substrate, FIG. 5B): half and approximately half
SMILES: Nc1ccn([C@@H]2O[C@H](COP(=O)(O)O)[C@@H](O)[C@@H]2O)c(=O)n1 [CTP]

- phosphorylation of the NMP as substrate (phosphate acceptor), in words (UMP-CMP kinase [1]): unable to phosphorylate
SMILES: Nc1nc2c(ncn2[C@@H]2O[C@H](COP(=O)(O)O)[C@@H](O)[C@H]2O)c(=O)[nH]1 [GMP]

- Mg^2+ concentration giving maximal UMP-CMP kinase activity (UMP-CMP kinase [1]; [3]): 3 mM
SMILES: [Mg+2] [Mg^2+]
- effect of Mg^2+ on UMP-CMP kinase activity, in words (UMP-CMP kinase [1]; [3]): increases UMP-CMP kinase activity in a concentration-dependent manner

Source: patent publication US20050100998A1 (priority 2000, published 2005)
